In patent US8629148B2, “Substituted oxindole-derivatives and the use thereof for the treatment of vasopressin-dependent illnesses” (AbbVie Deutschland GmbH & Co. KG, priority 2007, dated 2014):

Key:
[1] = biological target: T1, human vasopressin V1b receptor (Homo sapiens, UniProt P47901); experiment: Vasopressin V1b receptor binding assay (3H-AVP displacement, CHO-K1 membranes)
T1 construct: expressed in transfected cells; host or cells: CHO-K1 (cell line hV1b_3H2_CHO), membranes
T1 sequence (P47901 1-424): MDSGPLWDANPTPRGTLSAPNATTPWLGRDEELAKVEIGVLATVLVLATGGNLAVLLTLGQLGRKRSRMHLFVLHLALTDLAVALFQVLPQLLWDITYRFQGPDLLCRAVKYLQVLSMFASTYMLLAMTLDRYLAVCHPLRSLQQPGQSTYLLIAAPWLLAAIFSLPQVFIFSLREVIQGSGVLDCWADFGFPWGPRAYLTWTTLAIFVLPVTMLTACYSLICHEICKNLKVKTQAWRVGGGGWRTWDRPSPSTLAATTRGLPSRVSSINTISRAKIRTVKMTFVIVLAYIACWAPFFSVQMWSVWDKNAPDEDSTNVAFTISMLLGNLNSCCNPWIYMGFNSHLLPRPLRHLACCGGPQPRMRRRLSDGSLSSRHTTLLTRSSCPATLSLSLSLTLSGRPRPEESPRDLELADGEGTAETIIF
Experimental: 1. Vasopressin V1b Receptor Binding Assay:
The substance concentration was further diluted 1:5 in the assay mixture (2% DMSO in the mixture).
All determinations were carried out as triplicate determinations.

[2] = biological target: human vasopressin V1a receptor (Homo sapiens, UniProt P37288); experiment: Vasopressin V1a receptor binding assay (125I-AVP displacement, CHO-K1 membranes); conditions: selectivity quotient, human V1a vs human V1b
Sequence of human vasopressin V1a receptor (P37288 whole entry): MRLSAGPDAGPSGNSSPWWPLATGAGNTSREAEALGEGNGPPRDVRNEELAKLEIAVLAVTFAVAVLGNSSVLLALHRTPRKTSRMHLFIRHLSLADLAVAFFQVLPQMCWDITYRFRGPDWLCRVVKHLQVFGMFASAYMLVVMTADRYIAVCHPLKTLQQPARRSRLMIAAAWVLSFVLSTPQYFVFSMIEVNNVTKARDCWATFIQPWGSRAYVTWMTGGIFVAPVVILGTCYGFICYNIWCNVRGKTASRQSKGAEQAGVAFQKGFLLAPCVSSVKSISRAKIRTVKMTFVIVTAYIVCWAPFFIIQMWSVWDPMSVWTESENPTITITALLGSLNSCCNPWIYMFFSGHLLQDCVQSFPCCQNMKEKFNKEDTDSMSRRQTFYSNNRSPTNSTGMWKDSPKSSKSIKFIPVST

[3] = biological target: T2, recombinant human oxytocin receptors (Homo sapiens, UniProt P30559); experiment: Oxytocin receptor binding assay (3H-oxytocin, HEK-293 cells); conditions: selectivity quotient, human OT vs human V1b
T2 construct: expressed in transfected cells; host or cells: HEK-293, transient expression; lysed and homogenized cells
T2 sequence (P30559 1-389): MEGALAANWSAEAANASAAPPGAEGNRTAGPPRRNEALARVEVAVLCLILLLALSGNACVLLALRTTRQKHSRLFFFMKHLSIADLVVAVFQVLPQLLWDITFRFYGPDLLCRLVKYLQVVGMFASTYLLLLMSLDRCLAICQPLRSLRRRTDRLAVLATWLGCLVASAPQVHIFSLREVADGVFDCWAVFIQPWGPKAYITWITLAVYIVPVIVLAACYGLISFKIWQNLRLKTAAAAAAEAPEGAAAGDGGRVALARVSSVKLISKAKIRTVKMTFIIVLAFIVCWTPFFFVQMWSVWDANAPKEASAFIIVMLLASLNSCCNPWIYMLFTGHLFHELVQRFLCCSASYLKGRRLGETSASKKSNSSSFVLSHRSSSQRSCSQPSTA
Experimental: The residue was taken up in ice-cold lysis buffer (50 mM Tris-HCl, 10% glycerol, pH 7.4 and Roche complete protease inhibitor) and subjected to an osmotic shock at 4° C. for 20 minutes. The lyzed cells were then centrifuged at 750×g at 4° C. for 20 minutes, the residue was taken up in incubation buffer, and aliquots of 10^7 cells/ml were prepared. The aliquots were frozen at −80° C. until used.
On the day of the experiment, the cells were thawed, diluted with incubation buffer and homogenized using a Multipette Combitip (Eppendorf, Hamburg). […] Triplicate determinations were set up. Bound and free radioligand were separated by filtration under vacuum with Whatman GF/B glass fiber filters with the aid of a Skatron cell harvester 7000. The bound radioactivity was determined by liquid scintillation measurement in a Tricarb Beta counter, model 2000 or 2200CA (Packard).

Ki [1] [nM]	Ki(h-V1a)/Ki(h-V1b)* [2]	Ki(h-OT)/Ki(h-V1b)* [3]	SMILES
1 to 10	+++ (>75)	++ (25-75)	CCOc1ncccc1C1(OC(=O)c2ccc(N3CCN(C)CC3)cc2)C(=O)N(S(=O)(=O)c2ccc(OC)cc2)c2ccc(C#N)cc21 (stereo not drawn) [Example 2, 5-Cyano-3-(2-ethoxypyridin-3-yl)-1-(4-methoxyphenylsulfonyl)-2-oxo-2,3-dihydro-1H-indol-3-yl-4-(4-methylpiperazin-1-yl)benzoate]
1 to 10	+++ (>75)	+ (10-<25)	CCOc1ncccc1C1(OC(=O)c2ccc(N3CCN(C)CC3)cc2)C(=O)N(S(=O)(=O)c2ccc(OC)cc2OC)c2ccc(C#N)cc21 (stereo not drawn) [Example 3, 5-Cyano-1-(2,4-dimethoxyphenylsulfonyl)-3-(2-ethoxypyridin-3-yl)-2-oxo-2,3-dihydro-1H-indol-3-yl 4-(4-methylpiperazin-1-yl)benzoate]
1 to 10	+++ (>75)	++ (25-75)	CCOc1ncccc1C1(NC(=O)c2ccc(N3CCN(C)CC3)cc2)C(=O)N(S(=O)(=O)c2ccc(OC)cc2)c2ccc(C#N)cc21 (stereo not drawn) [Example 4, N-[5-Cyano-3-(2-ethoxypyridin-3-yl)-1-(4-methoxyphenylsulfonyl)-2-oxo-2,3-dihydro-1H-indol-3-yl]-4-(4-methylpiperazin-1-yl)benzamide]
1 to 10	+++ (>75)	+++ (>75)	CCOc1ncccc1C1(NC(=O)c2ccc(N3CCN(CC)CC3)cc2)C(=O)N(S(=O)(=O)c2ccc(OC)cc2)c2ccc(C#N)cc21 (stereo not drawn) [Example 5, N-[5-Cyano-3-(2-ethoxypyridin-3-yl)-1-(4-methoxyphenylsulfonyl)-2-oxo-2,3-dihydro-1H-indol-3-yl]-4-(4-ethylpiperazin-1-yl)benzamide]
1 to 10	+++ (>75)	++ (25-75)	CCOc1ncccc1C1(NC(=O)c2ccc(N3CCN(C)CC3)cc2)C(=O)N(S(=O)(=O)c2ccc(OC)cc2OC)c2ccc(C#N)cc21 (stereo not drawn) [Example 6, N-[5-Cyano-1-(2,4-dimethoxyphenylsulfonyl)-3-(2-ethoxypyridin-3-yl)-2-oxo-2,3-dihydro-1H-indol-3-yl]-4-(4-methylpiperazin-1-yl)benzamide]
1 to 10	+++ (>75)	++ (25-75)	CCOc1ncccc1C1(NC(=O)c2ccc(N3CCN(CC)CC3)cc2)C(=O)N(S(=O)(=O)c2ccc(OC)cc2OC)c2ccc(C#N)cc21 (stereo not drawn) [Example 7, N-[5-Cyano-1-(2,4-dimethoxyphenylsulfonyl)-3-(2-ethoxypyridin-3-yl)-2-oxo-2,3-dihydro-1H-indol-3-yl]-4-(4-ethylpiperazin-1-yl)benzamide]
10 to 100	+ (10-<25)	++ (25-75)	CCOc1ncccc1C1(NCc2ccc(N3CCN(C)CC3)cc2)C(=O)N(S(=O)(=O)c2ccc(OC)cc2)c2cc(Cl)c(F)cc21 (stereo not drawn) [Example 13, 6-Chloro-3-(2-ethoxypyridin-3-yl)-5-fluoro-1-(4-methoxyphenylsulfonyl)-3-[4-(4-methylpiperazin-1-yl)benzylamino]-1,3-dihydroindol-2-one]
1 to 10	+ (10-<25)	++ (25-75)	CCOc1ncccc1C1(NCc2ccc(N3CCN(C)CC3)cc2)C(=O)N(S(=O)(=O)c2ccc(OC)cc2)c2cc(F)c(F)cc21 (stereo not drawn) [Example 14, 5,6-Difluoro-3-(2-ethoxypyridin-3-yl)-1-(4-methoxyphenylsulfonyl)-3-[4-(4-methylpiperazin-1-yl)benzylamino]-1,3-dihydroindol-2-one]
1 to 10	++ (25-75)	+++ (>75)	CCOc1ncccc1C1(NCc2ccc(N3CCN(C)CC3)cc2)C(=O)N(S(=O)(=O)c2ccc(OC)cc2)c2ccc(F)cc21 (stereo not drawn) [Example 15, 3-(2-Ethoxypyridin-3-yl)-5-fluoro-1-(4-methoxyphenylsulfonyl)-3-[4-(4-methylpiperazin-1-yl)benzylamino]-1,3-dihydroindol-2-one]
1 to 10	+++ (>75)	+++ (>75)	CCOc1ncccc1C1(NCc2ccc(N3CCN(C)CC3)cc2)C(=O)N(S(=O)(=O)c2ccc(OC)cc2)c2ccc(C#N)cc21 (stereo not drawn) [Example 16, 3-(2-Ethoxypyridin-3-yl)-1-(4-methoxyphenylsulfonyl)-3-[4-(4-methylpiperazin-1-yl)-benzylamino]-2-oxo-2,3-dihydro-1H-indole-5-carbonitrile]
1 to 10	+ (10-<25)	+ (10-<25)	CCOc1ncccc1C1(NCc2ccc(N3CCN(C)CC3)cc2)C(=O)N(S(=O)(=O)c2ccc(OC)cc2OC)c2ccc(C#N)cc21 (stereo not drawn) [Example 17, 1-(2,4-Dimethoxyphenylsulfonyl)-3-(2-ethoxypyridin-3-yl)-3-[4-(4-methylpiperazin-1-yl)-benzylamino]-2-oxo-2,3-dihydro-1H-indole-5-carbonitrile]
1 to 10	+++ (>75)	+ (10-<25)	CCOc1ncccc1C1(NCc2ccc(N3CCN(C)CC3)cc2)C(=O)N(S(=O)(=O)c2ccccc2OC)c2ccc(C#N)cc21 (stereo not drawn) [Example 24, 3-(2-Ethoxypyridin-3-yl)-1-(2-methoxyphenylsulfonyl)-3-[4-(4-methylpiperazin-1-yl)-benzylamino]-2-oxo-2,3-dihydro-1H-indole-5-carbonitrile]
10 to 100	++ (25-75)	+ (10-<25)	CCOc1ncccc1C1(NCc2ccc(N3CCN(C)CC3)cc2)C(=O)N(S(=O)(=O)c2cccc(OC)c2)c2ccc(C#N)cc21 (stereo not drawn) [Example 25, 3-(2-Ethoxypyridin-3-yl)-1-(3-methoxyphenylsulfonyl)-3-[4-(4-methylpiperazin-1-yl)-benzylamino]-2-oxo-2,3-dihydro-1H-indole-5-carbonitrile]
10 to 100	++ (25-75)	+++ (>75)	CCOc1ncccc1C1(NCc2ccc(N3CCN(C)CC3)cc2)C(=O)N(S(=O)(=O)c2ccc(Cl)cc2)c2ccc(C#N)cc21 (stereo not drawn) [Example 26, 1-(4-Chlorophenylsulfonyl)-3-(2-ethoxypyridin-3-yl)-3-[4-(4-methylpiperazin-1-yl)-benzylamino]-2-oxo-2,3-dihydro-1H-indole-5-carbonitrile]
10 to 100	+ (10-<25)	+++ (>75)	CCOc1ncccc1C1(NCc2ccc(N3CCN(C)CC3)cc2)C(=O)N(S(=O)(=O)c2ccccc2)c2ccc(C#N)cc21 (stereo not drawn) [Example 27, 1-Phenylsulfonyl-3-(2-ethoxypyridin-3-yl)-3-[4-(4-methylpiperazin-1-yl)benzylamino]-2-oxo-2,3-dihydro-1H-indole-5-carbonitrile]
10 to 100	+ (10-<25)	+++ (>75)	CCOc1ncccc1C1(NCc2ccc(N3CCN(C)CC3)cc2)C(=O)N(S(=O)(=O)c2ccc(C#N)cc2)c2ccc(C#N)cc21 (stereo not drawn) [Example 28, 1-(4-Cyanophenylsulfonyl)-3-(2-ethoxypyridin-3-yl)-3-[4-(4-methylpiperazin-1-yl)-benzylamino]-2-oxo-2,3-dihydro-1H-indole-5-carbonitrile]
1 to 10	++ (25-75)	+ (10-<25)	CCOc1ncccc1C1(NCc2ccc(N3CCNCC3)cc2)C(=O)N(S(=O)(=O)c2ccc(OC)cc2OC)c2ccc(C#N)cc21 (stereo not drawn) [Example 29, 1-(2,4-Dimethoxyphenylsulfonyl)-3-(2-ethoxypyridin-3-yl)-2-oxo-3-(4-piperazin-1-yl-benzylamino)-2,3-dihydro-1H-indole-5-carbonitrile]
